Measurements published in ChEMBL document CHEMBL3627686, “Discovery of the oxazabicyclo[3.3.1]nonane derivatives as potent and orally active GPR119 agonists” (Bioorg Med Chem Lett, 2015).
Converted amounts (≈) assume the structure as drawn. The source made the active and inactive calls. No cut-off for these calls is given here.

How the values were obtained:
[1] = target: T1, Glucose-dependent insulinotropic receptor (Homo sapiens, UniProt Q8TDV5); assay: (§1) Agonist activity at human GPR119 expressed in HEK293 cells assessed as cAMP accumulation after 30 mins by fluorescence analysis; format: functional, cell-based
T1 sequence (Q8TDV5 whole entry): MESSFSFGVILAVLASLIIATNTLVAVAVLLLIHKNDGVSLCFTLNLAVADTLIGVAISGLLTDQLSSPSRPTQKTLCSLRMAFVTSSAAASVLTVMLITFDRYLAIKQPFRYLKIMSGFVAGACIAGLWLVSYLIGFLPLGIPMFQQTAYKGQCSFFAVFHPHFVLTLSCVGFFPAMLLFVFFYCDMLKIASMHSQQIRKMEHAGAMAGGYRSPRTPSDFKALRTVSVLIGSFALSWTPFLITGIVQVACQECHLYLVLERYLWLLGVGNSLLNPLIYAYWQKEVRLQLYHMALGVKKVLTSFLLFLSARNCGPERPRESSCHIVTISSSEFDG

[2] = target: T2, Glucose-dependent insulinotropic receptor (Homo sapiens) (UniProt Q8TDV5); assay: as §1; format: functional, cell-based
T2 sequence (whole entry): T1 sequence (Q8TDV5 whole entry)

[3] = target: T3, Glucose-dependent insulinotropic receptor (Mus musculus) (UniProt Q7TQP3); assay: (§2) Agonist activity at mouse GPR119 expressed in HEK293 cells assessed as cAMP accumulation after 30 mins by fluorescence analysis; format: functional, cell-based
T3 sequence (whole entry): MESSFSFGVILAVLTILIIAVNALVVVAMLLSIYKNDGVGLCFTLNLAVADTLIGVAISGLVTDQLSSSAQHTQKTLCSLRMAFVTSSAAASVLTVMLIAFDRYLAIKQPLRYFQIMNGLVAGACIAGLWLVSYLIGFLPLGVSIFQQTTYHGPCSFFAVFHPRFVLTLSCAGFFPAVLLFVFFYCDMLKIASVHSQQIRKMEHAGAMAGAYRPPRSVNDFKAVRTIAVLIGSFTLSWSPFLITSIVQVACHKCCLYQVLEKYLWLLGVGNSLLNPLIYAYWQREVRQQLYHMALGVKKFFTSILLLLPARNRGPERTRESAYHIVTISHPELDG

Mus musculus [4] = assay: Decrease in blood glucose level in C57B1/6NCrl mouse at 3 mg/kg, po administered 30 mins prior to oral glucose challenge by glucose tolerance test; format: functional, organism-based
Mus musculus [5] = assay: Decrease in blood glucose level in C57B1/6NCrl mouse at 3 mg/kg, po administered 30 mins prior to oral glucose challenge by glucose tolerance test relative to control; format: functional
Mus musculus [6] = assay: Decrease in blood glucose level in C57B1/6NCrl mouse at 0.1 mg/kg, po administered 30 mins prior to oral glucose challenge by glucose tolerance test relative to control; format: functional
[7] = Solubility of compound at pH 7.4; format: physicochemical; settings: buffer
[8] = AUC (0 to 6 hrs) in Sprague-Dawley rat plasma at 10 mg/kg, po; format: ADME, organism-based; parameters: time < 6 hr, dose 10 mg/kg, route oral
Mus musculus [9] = assay: Decrease in blood glucose level in C57B1/6NCrl mouse drug administered 30 mins prior to oral glucose challenge by glucose tolerance test; format: functional, organism-based
Plasma [10] = assay: Plasma concentration in C57B1/6NCrl mouse at 0.1 mg/kg, po; format: ADME, organism-based; settings: in vivo
Plasma [11] = assay: Plasma concentration in C57B1/6NCrl mouse at 0.3 mg/kg, po; format: ADME, organism-based; settings: in vivo
Plasma [12] = assay: Plasma concentration in C57B1/6NCrl mouse at 1 mg/kg, po; format: ADME, organism-based; settings: in vivo
Plasma [13] = assay: Plasma concentration in C57B1/6NCrl mouse at 3 mg/kg, po; format: ADME, organism-based; settings: in vivo
[14] = target: T4, Glucose-dependent insulinotropic receptor (Mus musculus, UniProt Q7TQP3); assay: as §2; format: functional, cell-based
T4 sequence (Q7TQP3 whole entry): T3 sequence (whole entry)

Plasma [15] = assay: Fraction unbound in C57B1/6NCrl mouse plasma at 3 mg/kg, po after 1 hr; format: ADME, organism-based; settings: in vivo

Cc1ncccc1Nc1ncnc(OC2C3COCC2CN(C(=O)OC(C)C)C3)c1C (stereo in doubt; 21) [listing 1 of 2 here]
EC50 [1]: 0.065 µM

Cc1c(Nc2ccc(C#N)cc2Cl)ncnc1OC1CC2COCC(C1)N2C(=O)OC(C)(C)C (stereo in doubt; 15) [listing 1 of 2 here]
%max [2]: 38% | %max [3]: 57% | Activity (Mus musculus [4]): inactive

COc1c(Nc2ccc(C#N)cc2Cl)ncnc1OC1C2COCC1CN(C(=O)OC1(C)CC1)C2 (configuration not stated)
inhibition in vivo at 3 mg/kg (Mus musculus [5]): 78% | inhibition in vivo at 0.1 mg/kg (Mus musculus [6]): 40% | solubility [7]: 30 µM (≈ 15 µg/mL) | AUC(0-t) at 6 h [8]: 8.23 µM·h | inhibition (Mus musculus [9]): Dose-dependent effect | concentration (Plasma [10]): 20 nM | concentration (Plasma [11]): 90 nM | concentration (Plasma [12]): 220 nM | concentration (Plasma [13]): 350 nM | %max [2]: 88% | EC50 [1]: 0.007 µM | %max [3]: 99% | EC50 [14]: 0.043 µM

Cc1c(Nc2ccc(C#N)cc2Cl)ncnc1OC1C2COCC1CN(S(=O)(=O)C1CC1)C2 (stereo in doubt; 17) [listing 1 of 2 here]
%max [2]: 56% | %max [3]: 53%

Cc1c(Nc2ccc(C#N)cc2Cl)ncnc1OC1CC2COCC(C1)N2C(=O)OC(C)(C)C (stereo in doubt; 14) [listing 1 of 2 here]
%max [2]: 54% | %max [3]: 34%

Cc1c(Nc2ccc(C#N)cc2Cl)ncnc1OC1CC2COCC(C1)N2S(=O)(=O)C1CC1 (configuration not stated)
%max [2]: 64% | EC50 [1]: 0.268 µM | %max [3]: 100% | EC50 [14]: 1.6 µM

Cc1c(Nc2ccc(C#N)cc2Cl)ncnc1OC1C2COCC1CN(S(=O)(=O)C1CC1)C2 (stereo in doubt; 18) [listing 1 of 2 here]
%max [2]: 52%

Cc1c(Nc2ccc(S(C)(=O)=O)cc2Cl)ncnc1OC1CC2COCC(C1)N2C(=O)OC(C)(C)C (configuration not stated)
%max [2]: 49% | EC50 [1]: 0.044 µM | %max [3]: 78% | EC50 [14]: 0.19 µM | Activity (Mus musculus [4]): Active

Cc1ncccc1Nc1ncnc(OC2C3COCC2CN(C(=O)OC(C)C)C3)c1C (stereo in doubt; 22)
EC50 [1]: > 10 µM

CC1(OC(=O)N2CC3COCC(C2)C3Oc2cc(Nc3ccc(C#N)cc3Cl)ncn2)CC1 (configuration not stated)
inhibition in vivo at 3 mg/kg (Mus musculus [5]): 78% | AUC(0-t) at 6 h [8]: 1.19 µM·h | %max [2]: 88% | EC50 [1]: 0.025 µM | %max [3]: 105% | EC50 [14]: 0.254 µM

Cc1ncccc1Nc1ncnc(OC2C3COCC2CN(C(=O)OC(C)C)C3)c1C (stereo in doubt; 21) [listing 2 of 2 here]
%max [2]: 78%

Cc1c(Nc2ccc(C#N)cc2Cl)ncnc1OC1C2COCC1CN(S(=O)(=O)C1CC1)C2 (stereo in doubt; 17) [listing 2 of 2 here]
EC50 [1]: 0.051 µM | EC50 [14]: 0.844 µM

Cc1c(Nc2ccc(C#N)cc2Cl)ncnc1OC1C2COCC1CN(C(=O)OC1(C)CC1)C2 (configuration not stated)
inhibition in vivo at 3 mg/kg (Mus musculus [5]): 79% | Cp(f) (Plasma [15]): 3 nM | solubility [7]: 6 µM (≈ 2.9 µg/mL) | AUC(0-t) at 6 h [8]: 4.98 µM·h | %max [2]: 74% | EC50 [1]: 0.004 µM | %max [3]: 102% | EC50 [14]: 0.033 µM

Cc1c(Nc2ccc(C#N)cc2Cl)ncnc1OC1CC2COCC(C1)N2C(=O)OC(C)(C)C (stereo in doubt; 15) [listing 2 of 2 here]
EC50 [1]: 0.017 µM | EC50 [14]: 0.1 µM

Cc1c(Nc2ccc(C#N)cc2Cl)ncnc1OC1C2COCC1CN(C(=O)OC(C)(C)C)C2 (stereo in doubt; 20) [listing 1 of 2 here]
EC50 [1]: 0.02 µM | EC50 [14]: 0.14 µM

COc1c(Nc2ccc(C#N)cc2F)ncnc1OC1C2COCC1CN(C(=O)OC1(C)CC1)C2 (configuration not stated)
inhibition in vivo at 3 mg/kg (Mus musculus [5]): 78% | AUC(0-t) at 6 h [8]: 1.43 µM·h | %max [2]: 99% | EC50 [1]: 0.005 µM | %max [3]: 116% | EC50 [14]: 0.047 µM

Cc1c(Nc2ccc(C#N)cc2Cl)ncnc1OC1C2COCC1CN(C(=O)OC(C)(C)C)C2 (stereo in doubt; 20) [listing 2 of 2 here]
%max [2]: 83% | %max [3]: 69%

Cc1c(Nc2ccc(C#N)cc2Cl)ncnc1OC1C2COCC1CN(C(=O)OC(C)(C)C)C2 (stereo in doubt; 19) [listing 1 of 2 here]
EC50 [1]: 0.007 µM | EC50 [14]: 0.028 µM

Cc1c(Nc2ccc(C#N)cc2Cl)ncnc1OC1C2COCC1CN(S(=O)(=O)C1CC1)C2 (stereo in doubt; 18) [listing 2 of 2 here]
EC50 [1]: 1.21 µM

Cc1c(Nc2ccc(C#N)cc2Cl)ncnc1OC1CC2COCC(C1)N2C(=O)OC(C)(C)C (stereo in doubt; 14) [listing 2 of 2 here]
EC50 [1]: 0.114 µM | EC50 [14]: 0.28 µM

Cc1c(Oc2ccc(C#N)cc2Cl)ncnc1OC1C2COCC1CN(C(=O)OC1(C)CC1)C2 (configuration not stated)
inhibition in vivo at 3 mg/kg (Mus musculus [5]): 75% | AUC(0-t) at 6 h [8]: 1.49 µM·h | %max [2]: 78% | EC50 [1]: 0.016 µM | %max [3]: 143% | EC50 [14]: 0.128 µM

Cc1c(Nc2ccc(S(C)(=O)=O)cc2F)ncnc1OC1CC2COCC(C1)N2C(=O)OC1(C)CC1 (configuration not stated)
inhibition in vivo at 3 mg/kg (Mus musculus [5]): 84% | Cp(f) (Plasma [15]): 100 nM | solubility [7]: 3.4 µM (≈ 1.77 µg/mL) | AUC(0-t) at 6 h [8]: 2.4 µM·h | %max [2]: 87% | EC50 [1]: 0.07 µM | %max [3]: 79% | EC50 [14]: 0.511 µM

Cc1c(Nc2ccc(C#N)cc2Cl)ncnc1OC1C2COCC1CN(C(=O)OC(C)(C)C)C2 (stereo in doubt; 19) [listing 2 of 2 here]
%max [2]: 65% | %max [3]: 110%
